Assay results from patent publication US20250018049A1, “COMPOUNDS FOR DEGRADING CYCLIN-DEPENDENT KINASE 2 VIA UBIQUITIN PROTEOSOME PATHWAY” (NIKANG THERAPEUTICS, INC., priority 2020, published 2025).
pIC50: −log10 of the molar value.

Columns and labels:
Format in all cases: cell-based
CDK2 [1] = target: T1, CDK2 (Homo sapiens, UniProt P24941); assay: Phospho-Rb HTRF measurement in OVCAR3 cells (inhibition of CDK2); design: High-Throughput Measurement of Cellular Endogenous CDK2; endogenous in cells; host or cells: OVCAR3; settings: pRB(S807/811) assay, 24 h compound treatment
CDK2 [2] = target: T1, CDK2; assay: CDK2 HTRF assay (cellular endogenous CDK2 level); design: High-Throughput Measurement of Cellular Endogenous CDK2; endogenous in cells; host or cells: OVCAR3; settings: OVCAR-3; OVCAR3 cells, 24 hours, 0.3 to 10,000 nM; read-out: max degradation of CDK2
Description: Effects of compounds on cellular CDK2 level can be monitored by a high-throughput HTRF assay or traditional Western Blot assay.
To determine half maximal degradation concentration (DC50) values of compounds, cellular CDK2 level was measured in 96-well format using HTRF total CDK2 cellular kit (Cat #64CDK2TPEG) from Cisbio.
On Day 1, OVCAR3 cells were seeded into 96-well tissue-culture treated plates at 20,000 cells/well in 200 μL and incubated overnight at 37° C. in CO2 atmosphere. On Day 2 cells were treated with compounds at concentration ranging from 0.3 to 10,000 nM using HP D300 digital dispenser. 24 hours after compound treatment, cell culture media was removed by flicking the plate and tapping the plate against clean paper towel. Immediately 30 μL 1× lysis buffer was supplemented from the kit and the plate was incubated at room temperature on shaker for 30 min. After homogenization by pipetting up and down, 8 μL cell lysate from 96-well cell culture plate was transferred to 384-well small volume white detection plate. 2 μL premixed detection solution was added and the plate was covered with sealer. To prepare the detection solution, d2 conjugated-CDK2 antibody and Eu-cryptate conjugated CDK2 antibody were diluted into detection buffer following manufacturer's instruction. Detection plates were incubated overnight at room temperature and read on ClarioStar (BMG Labtech) in TR-FRET mode (665 nM and 620 nM). The TR-FRET ratio (665 nM/620 nM) was plotted against the compound concentration and normalized to DMSO controls. Half maximal degradation concentration (DC50) values were calculated with a four-parameter logistic fit using GraphPad Prism (version 8; La Jolla, CA). FIG. 1 provides a dose-response curve of Compound 1 in Compound Table I in cellular CDK2 HTRF assay. IC50 in FIG. 1 is the same as DC50. Compounds 1, 13, 16, 22, 23, 28, 34, 35, 36, 37, 38, 39, 42, 48, 50, 51, 53, 54, 55, 56, 57, 58, 59, 60, 61, 62, 63, 65, 66, 68, 69, 70 were tested and max degradation of CDK2 observed was from about 35% to about 90%.

CDK2 [3] = target: T1, CDK2; assay: NanoBRET CDK2 engagement assay; design: expressed in transfected cells; settings: OVCAR3 cells with stable CDK2-Luciferase vector, 24 hours treatment
How it was run: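 OVCAR3 cells stably expressing CDK2-luciferase, in Opti-MEM with 1% FBS, treated 24 h at 37° C with compound from 3 μM in ½-log steps to 0.3 nM; NanoBRET tracer present for final 2 h. Donor/acceptor emission read; engagement normalized to DMSO as 100% signal, IC50 by curve fit.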

Structure (SMILES)	pIC50 (CDK2 [1])	Dmax (CDK2 [2]) [%]	pIC50 (CDK2 [3])
CC1(O)CCCC1n1c(=O)ccc2cnc(NC3CCN(S(=O)(=O)c4cccc(CN5CCN(c6ccc7c(c6)CN(C6CCC(=O)NC6=O)C7=O)CC5)c4)CC3)nc21 (stereo not drawn) [Compound 55, 3-(5-(4-(3-((4-((8-(2-hydroxy-2-methyl-cyclopentyl)-7-oxo-7,8-dihydropyrido[2,3-d]-pyrimidin-2-yl)amino)piperidin-1-yl)sulfonyl)-benzyl)piperazin-1-yl)-1-oxoisoindolin-2-yl)-piperidine-2,6-dione]	7.15	35 to 90	6.13
O=C1CCC(N2Cc3cc(N4CC5CCC4CN5Cc4cccc(S(=O)(=O)N5CCC(Nc6ncc7ccc(=O)n(C8CCCC8)c7n6)CC5)c4)ccc3C2=O)C(=O)N1 (stereo not drawn) [Compound 51, 3-(5-(5-(3-((4-((8-cyclopentyl-7-oxo-7,8-dihydropyrido[2,3-d]pyrimidin-2-yl)amino)-piperidin-1-yl)sulfonyl)benzyl)-2,5-diazabicyclo[2.2.2]octan-2-yl)-1-oxoisoindolin-2-yl)piperidine-2,6-dione]	6.81	35 to 90	6.70
O=C1CCC(N2Cc3cc(N4CCN(CC5CCN(c6cccc(S(=O)(=O)N7CCC(Nc8ncc9ccc(=O)n(C%10CCCC%10)c9n8)CC7)c6)CC5)CC4)ccc3C2=O)C(=O)N1 (stereo not drawn) [Compound 36, 3-(5-(4-((1-(3-((4-((8-cyclopentyl-7-oxo-7,8-dihydropyrido[2,3-d]pyrimidin-2-yl)amino)-piperidin-1-yl)sulfonyl)phenyl)piperidin-4-yl)-methyl)piperazin-1-yl)-1-oxoisoindolin-2-yl)-piperidine-2,6-dione]	7.59	35 to 90	6.67
O=C1CCC(N2Cc3cc(C4CCN(CC5CCN(c6cccc(S(=O)(=O)N7CCC(Nc8ncc9ccc(=O)n(C%10CCCC%10)c9n8)CC7)c6)CC5)CC4)ccc3C2=O)C(=O)N1 (stereo not drawn) [Compound 35, 3-(5-(1-((1-(3-((4-((8-cyclopentyl-7-oxo-7,8-dihydropyrido[2,3-d]pyrimidin-2-yl)amino)-piperidin-1-yl)sulfonyl)phenyl)piperidin-4-yl)-methyl)piperidin-4-yl)-1-oxoisoindolin-2-yl)piperidine-2,6-dione]	4.15	35 to 90	6.86
O=C1CCC(N2Cc3cc(N4CC5CC4CN5Cc4cccc(S(=O)(=O)N5CCC(Nc6ncc7ccc(=O)n(C8CCCC8)c7n6)CC5)c4)ccc3C2=O)C(=O)N1 (stereo not drawn) [Compound 53, 3-(5-(5-(3-((4-((8-cyclopentyl-7-oxo-7,8-dihydropyrido[2,3-d]pyrimidin-2-yl)amino)-piperidin-1-yl)sulfonyl)benzyl)-2,5-diazabicyclo-[2.2.1]heptan-2-yl)-1-oxoisoindolin-2-yl)-piperidine-2,6-dione]	6.59	35 to 90	6.82
CN(CCN(C)S(=O)(=O)N1CCC(Nc2ncc3ccc(=O)n(C4CCCC4)c3n2)CC1)Cc1ccc(N(C)c2cccc3c2C(=O)N(C2CCC(=O)NC2=O)C3=O)cc1 (stereo not drawn) [Compound 22, 4-((8-cyclopentyl-7-oxo-7,8-dihydropyrido[2,3-d]-pyrimidin-2-yl)amino)-N-(2-((4-((2-(2,6-dioxopiperidin-3-yl)-1,3-dioxoisoindolin-4-yl)(methyl)amino)benzyl)(methyl)amino)ethyl)-N-methylpiperidine-1-sulfonamide]	6.10	35 to 90	6.04
Cn1c(=O)n(C2CCC(=O)NC2=O)c2cccc(C#CCOC3CCN(CC4CCN(S(=O)(=O)N5CCC(Nc6ncc7ccc(=O)n(C8CCCC8)c7n6)CC5)CC4)CC3)c21 (stereo not drawn) [Compound 13, 3-(4-(3-((1-((1-((4-((8-cyclopentyl-7-oxo-7,8-dihydropyrido[2,3-d]pyrimidin-2-yl)amino)-piperidin-1-yl)sulfonyl)piperidin-4-yl)methyl)-piperidin-4-yl)oxy)prop-1-yn-1-yl)-3-methyl-2-oxo-2,3-dihydro-1H-benzo[d]imidazol-1-yl)-piperidine-2,6-dione]	5.67	35 to 90	6.53
O=C1CCC(N2Cc3cc(N4CCN(Cc5cccc(S(=O)(=O)N6CCC(Nc7ncc8ccc(=O)n(C9CCCC9)c8n7)CC6)c5)CC4)ccc3C2=O)C(=O)N1 (stereo not drawn) [Compound 50, 3-(5-(4-(3-((4-((8-cyclopentyl-7-oxo-7,8-dihydropyrido[2,3-d]pyrimidin-2-yl)-amino)-piperidin-1-yl)sulfonyl)benzyl)-piperazin-1-yl)-1-oxoisoindolin-2-yl)piperidine-2,6-dione]	7.31	35 to 90	6.54

Results, then the compound that gave them:

pIC50 (CDK2 [1])	Dmax (CDK2 [2]) [%]	pIC50 (CDK2 [3])	Structure (SMILES)
7.15	35 to 90	6.49	O=C1CCC(N2Cc3cc(N4CC5(CN(Cc6cccc(S(=O)(=O)N7CCC(Nc8ncc9ccc(=O)n(C%10CC%11CC%11C%10)c9n8)CC7)c6)C5)C4)ccc3C2=O)C(=O)N1 (stereo not drawn) [Compound 61, 3-(5-(6-(3-((4-((8-(bicyclo[3.1.0]hexan-3-yl)-7-oxo-7,8-dihydropyrido[2,3-d]pyrimidin-2-yl)amino)piperidin-1-yl)sulfonyl)benzyl)-2,6-diazaspiro[3.3]heptan-2-yl)-1-oxoisoindolin-2-yl)piperidine-2,6-dione]
6.36	35 to 90	6.39	O=C1CCC(N2C(=O)c3cccc(NCCOCCOCCOCCOCCNS(=O)(=O)N4CCC(Nc5ncc6ccc(=O)n(C7CCCC7)c6n5)CC4)c3C2=O)C(=O)N1 (stereo not drawn) [compound 1, 4-((8-cyclopentyl-7-oxo-7,8-dihydro-pyrido[2,3-d]pyrimidin-2-yl)amino)-N-(14-((2-(2,6-dioxopiperidin-3-yl)-1,3-dioxoisoindolin-4-yl)amino)-3,6,9,12-tetraoxatetradecyl)piperidine-1-sulfonamide]
7.32	35 to 90	6.74	O=C1CCC(N2Cc3cc(N4CCC5(CCN(Cc6cccc(S(=O)(=O)N7CCC(Nc8ncc9ccc(=O)n(C%10CCCC%10)c9n8)CC7)c6)CC5)CC4)ccc3C2=O)C(=O)N1 (stereo not drawn) [Compound 59, 3-(5-(9-(3-((4-((8-cyclopentyl-7-oxo-7,8-dihydro-pyrido[2,3-d]pyrimidin-2-yl)amino)piperidin-1-yl)sulfonyl)benzyl)-3,9-diazaspiro[5.5]undecan-3-yl)-1-oxoisoindolin-2-yl)piperidine-2,6-dione]
7.59	35 to 90	7.40	O=C1CCC(N2Cc3cc(N4CCN(C5CN(c6cccc(S(=O)(=O)N7CCC(Nc8ncc9ccc(=O)n(C%10CCCC%10)c9n8)CC7)c6)C5)CC4)ccc3C2=O)C(=O)N1 (stereo not drawn) [Compound 70, 3-(5-(4-(1-(3-((4-((8-cyclopentyl-7-oxo-7,8-dihydropyrido[2,3-d]pyrimidin-2-yl)amino)-piperidin-1-yl)sulfonyl)phenyl)-azetidin-3-yl)piperazin-1-yl)-1-oxoisoindolin-2-yl)piperidine-2,6-dione]
7.53	35 to 90	6.70	O=C1CCC(N2Cc3cc(CNCCOc4cccc(S(=O)(=O)N5CCC(Nc6ncc7ccc(=O)n(C8CCCC8)c7n6)CC5)c4)ccc3C2=O)C(=O)N1 (stereo not drawn) [Compound 68, 3-(5-(((2-(3-((4-((8-cyclopentyl-7-oxo-7,8-dihydropyrido[2,3-d]pyrimidin-2-yl)amino)-piperidin-1-yl)sulfonyl)phenoxy)ethyl)amino)-methyl)-1-oxoisoindolin-2-yl)piperidine-2,6-dione]
6.81	35 to 90	6.54	O=C1CCC(N2Cc3cc(N4CC5(CCN(Cc6cccc(S(=O)(=O)N7CCC(Nc8ncc9ccc(=O)n(C%10CCCC%10)c9n8)CC7)c6)CC5)C4)ccc3C2=O)C(=O)N1 (stereo not drawn) [Compound 58, 3-(5-(7-(3-((4-((8-cyclopentyl-7-oxo-7,8-dihydropyrido[2,3-d]pyrimidin-2-yl)amino)-piperidin-1-yl)sulfonyl)benzyl)-2,7-diazaspiro-[3.5]nonan-2-yl)-1-oxoisoindolin-2-yl)piperidine-2,6-dione]
